# Data from patent US9850216B2 (H. LEE MOFFITT CANCER CENTER AND RESEARCH INSTITUTE, INC., priority 2013, dated 2017).
# Several values for one entry are separate records, joined by “and”; a condition that tells them apart may be missing. Equal entries are not always repeated. Where two headings read alike, the source gives them in different places.
# Experiments:
# ACK1 = ACK1 (Homo sapiens, UniProt Q07912); assay: ACK1 ELISA: phosphorylation of AKT-derived peptide; assay type: biochemical; details: Table 1, replicate values listed
# Sequence of ACK1 (Q07912 whole entry): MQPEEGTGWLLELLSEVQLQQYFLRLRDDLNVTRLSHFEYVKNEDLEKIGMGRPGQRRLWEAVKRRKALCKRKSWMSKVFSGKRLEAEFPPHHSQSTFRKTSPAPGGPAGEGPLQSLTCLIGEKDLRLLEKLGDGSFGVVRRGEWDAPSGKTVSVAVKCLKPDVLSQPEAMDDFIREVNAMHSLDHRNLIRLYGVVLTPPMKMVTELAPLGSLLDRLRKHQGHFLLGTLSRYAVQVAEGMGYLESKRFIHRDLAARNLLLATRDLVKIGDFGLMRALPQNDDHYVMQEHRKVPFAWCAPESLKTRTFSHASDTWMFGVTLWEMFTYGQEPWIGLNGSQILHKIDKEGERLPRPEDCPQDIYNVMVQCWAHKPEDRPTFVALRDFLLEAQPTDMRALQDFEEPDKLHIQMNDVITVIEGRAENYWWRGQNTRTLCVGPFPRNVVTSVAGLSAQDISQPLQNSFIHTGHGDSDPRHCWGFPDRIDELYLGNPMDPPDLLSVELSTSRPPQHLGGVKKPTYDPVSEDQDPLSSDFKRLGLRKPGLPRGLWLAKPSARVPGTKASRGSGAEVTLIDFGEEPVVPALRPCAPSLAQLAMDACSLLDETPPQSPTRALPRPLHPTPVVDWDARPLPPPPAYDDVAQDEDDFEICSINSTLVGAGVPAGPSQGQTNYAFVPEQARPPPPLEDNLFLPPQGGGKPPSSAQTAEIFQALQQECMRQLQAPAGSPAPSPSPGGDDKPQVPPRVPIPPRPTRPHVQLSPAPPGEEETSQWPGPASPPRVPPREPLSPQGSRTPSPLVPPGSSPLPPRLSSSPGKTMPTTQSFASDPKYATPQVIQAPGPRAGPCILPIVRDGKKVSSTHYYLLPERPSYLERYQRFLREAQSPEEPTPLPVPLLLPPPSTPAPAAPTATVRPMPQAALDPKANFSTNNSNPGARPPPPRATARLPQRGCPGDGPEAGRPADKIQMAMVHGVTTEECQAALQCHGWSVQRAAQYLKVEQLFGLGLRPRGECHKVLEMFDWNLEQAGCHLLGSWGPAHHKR
# [1] = 10 μM, read-out: % Inhibition at 10 μM (ELISA)
% Inhibition at 10 μM (ELISA) (ACK1; 10 μM),melting point,inhibition at 10 µM (ACK1; [1]) [%],"% Inhibition at 10 μM (ELISA) (ACK1; 10 μM, hydrochloride)",Compound,"inhibition at 10 µM (ACK1; read-out: % Inhibition at 10 μM (ELISA), 10 μM) [%]"
37% and 18%,246 °C (dec.),,,"COc1ccc(Nc2ncc(C(=O)Nc3c(F)cccc3Cl)c(Nc3ccccc3S(=O)(=O)C(C)C)n2)cc1 [YL7-045-1, N-(2-chloro-6-fluorophenyl)-4-(2-(isopropylsulfonyl)phenylamino)-2-(4-methoxyphenylamino)pyrimidine-5-carboxamide]",
50%,168 °C (dec.),47,,"CC(C)S(=O)(=O)c1ccccc1Nc1nc(Nc2ccc(O)cc2)ncc1C(=O)Nc1c(F)cccc1Cl [YL7-045-2, N-(2-chloro-6-fluorophenyl)-2-(4-hydroxyphenylamino)-4-(2-(isopropylsulfonyl)phenylamino)pyrimidine-5-carboxamide]",
7% and −21% and −27%,225 to 227 °C,,,"CC(C)S(=O)(=O)c1ccccc1Nc1nc(Cl)ncc1C(=O)Nc1c(F)cccc1Cl [YL7-041, 2-Chloro-N-(2-chloro-6-fluorophenyl)-4-(2-(isopropylsulfonyl)phenylamino)pyrimidine-5-carboxamide]",
24% and 47%,233 °C (dec.),,,"CCSc1ccccc1Nc1nc(Nc2ccc(O)cc2)ncc1C(=O)Nc1c(F)cccc1Cl [YL7-058-4, N-(2-chloro-6-fluorophenyl)-4-(2-(ethylthio)phenylamino)-2-(4-hydroxyphenylamino)pyrimidine-5-carboxamide]",
0% and −3% and −25%,230 to 233 °C,,,"CCS(=O)(=O)c1ccccc1Nc1nc(Cl)ncc1C(=O)Nc1c(F)cccc1Cl [YL7-054, 2-Chloro-N-(2-chloro-6-fluorophenyl)-4-(2-(ethylsulfonyl)phenylamino)pyrimidine-5-carboxamide]",
7% and 0%,261 °C (dec.),,,"COc1ccc(Nc2ncc(C(=O)Nc3c(F)cccc3Cl)c(Nc3ccccc3SC)n2)cc1 [YL7-039-1, N-(2-chloro-6-fluorophenyl)-2-(4-methoxyphenylamino)-4-(2-(methylthio)phenylamino)pyrimidine-5-carboxamide]",
0% and 14% and −8%,226 to 229 °C,,,"CCCS(=O)(=O)c1ccccc1Nc1nc(Cl)ncc1C(=O)Nc1c(F)cccc1Cl [YL7-052, 2-Chloro-N-(2-chloro-6-fluorophenyl)-4-(2-(propylsulfonyl)phenylamino)pyrimidine-5-carboxamide]",
,205 to 208 °C,0,,"CCSc1ccccc1Nc1nc(Cl)ncc1C(=O)Nc1c(F)cccc1Cl [YL7-053, 2-Chloro-N-(2-chloro-6-fluorophenyl)-4-(2-(ethylthio)phenylamino)pyrimidine-5-carboxamide]",
14% and 0%,227 °C (dec.),,,"COc1ccc(CNc2ncc(C(=O)Nc3c(F)cccc3Cl)c(Nc3ccccc3S(=O)(=O)C(C)C)n2)cc1 [YL7-106-1, N-(2-chloro-6-fluorophenyl)-4-(2-(isopropylsulfonyl)phenylamino)-2-(4-methoxybenzylamino)pyrimidine-5-carboxamide]",
6%,192 °C (dec.),8,,CC(C)S(=O)(=O)c1ccccc1Nc1nc(Nc2ccc(S(N)(=O)=O)cc2)ncc1C(=O)Nc1c(F)cccc1Cl [YL7-100-1],
43%,230 °C (dec.),51,,"CC(C)S(=O)(=O)c1ccccc1Nc1nc(Nc2ccc(C(N)=O)cc2)ncc1C(=O)Nc1c(F)cccc1Cl [YL7-106-3, 2-(4-Carbamoylphenylamino)-N-(2-chloro-6-fluorophenyl)-4-(2-(isopropylsulfonyl)phenylamino)pyrimidine-5-carboxamide]",
68% and 43%,201 °C (dec.),,,"CCS(=O)(=O)c1ccccc1Nc1nc(Nc2ccc(O)cc2)ncc1C(=O)Nc1c(F)cccc1Cl [YL7-058-2, N-(2-chloro-6-fluorophenyl)-4-(2-(ethylsulfonyl)phenylamino)-2-(4-hydroxyphenylamino)pyrimidine-5-carboxamide]",

# The next lines start with the compound.
Compound,% Inhibition at 10 μM (ELISA) (ACK1; 10 μM),melting point,inhibition at 10 µM (ACK1; [1]) [%],"% Inhibition at 10 μM (ELISA) (ACK1; 10 μM, hydrochloride)","inhibition at 10 µM (ACK1; read-out: % Inhibition at 10 μM (ELISA), 10 μM) [%]"
"Cl.O=C(O)c1cc(Nc2ncc(Br)c(NCC3CCCO3)n2)ccc1O (centres unmarked) [YL8-003-1, 5-(5-Bromo-4-((tetrahydrofuran-2-yl)methylamino)pyrimidin-2-ylamino)-2-hydroxybenzoic acid hydrochloride]",,211 °C (dec.),27,28% and 16%,
"Cl.Oc1ccc(Nc2nc(NCC3CCCO3)c3ccccc3n2)cc1F (centres unmarked) [YL8-001, 2-Fluoro-4-(4-((tetrahydrofuran-2-yl)methylamino)quinazolin-2-ylamino)phenol hydrochloride]",,144 °C (dec.),,4% and 10% and −6%,
"CCc1cnc(Nc2ccc(N3CCN(C)CC3)cc2)nc1NCC1CCCO1 (centres unmarked) [DZ1-108, 5-ethyl-N2-(4-(4-methylpiperazin-1-yl)phenyl)-N4-((tetrahydrofuran-2-yl)methyl)pyrimidine-2,4-diamine]",72% and 48% and 34% and 46%,209.5 °C (dec.),,,
"Cc1cnc(Nc2ccc(N3CCN(C)CC3)cc2)nc1NCC1CCCO1 (centres unmarked) [DZ1-100, 5-methyl-N2-(4-(4-methylpiperazin-1-yl)phenyl)-N4-((tetrahydrofuran-2-yl)methyl)pyrimidine-2,4-diamine]",85% and 54% and 5% and 10%,151.7 °C (dec.),,,
"Cl.Fc1cc(Nc2ncc(Br)c(NCC3CCCO3)n2)ccc1Cl (centres unmarked) [YL7-172-7, 5-Bromo-N2-(4-chloro-3-fluorophenyl)-N4-((tetrahydrofuran-2-yl)methyl)pyrimidine-2,4-diamine hydrochloride]",,172 °C (dec.),,0% and 5% and 3%,
"Cl.Oc1ccc(Nc2ncc(Br)c(NCC3CCCO3)n2)cc1Cl (centres unmarked) [YL7-172-1, 4-(5-Bromo-4-((tetrahydrofuran-2-yl)methylamino)pyrimidin-2-ylamino)-2-chlorophenol hydrochloride]",,193 °C (dec.),,75% and 55% and 35%,
"COc1ccc(Nc2ncc(Br)c(NCC3CCCO3)n2)cc1F.Cl (centres unmarked) [YL7-172-8, 5-Bromo-N2-(3-fluoro-4-methoxyphenyl)-N4-((tetrahydrofuran-2-yl)methyl)pyrimidine-2,4-diamine hydrochloride]",,169 °C (dec.),,14% and 35% and 41%,
"O=C(O)CCCc1ccc(Nc2ncc(Cl)c(NCC3CCCO3)n2)cc1 (centres unmarked) [NT1-025, 4-(4-(5-Chloro-4-((tetrahydrofuran-2-yl)methylamino)pyrimidin-2-ylamino)phenyl)butanoic acid]",65%,180 °C (dec.),,,61
"Cl.O=C(O)Cc1ccc(Nc2ncc(Br)c(NCC3CCCO3)n2)cc1 (centres unmarked) [NT1-022, 2-(4-(5-Bromo-4-((tetrahydrofuran-2-yl)methylamino)pyrimidin-2-ylamino)phenyl)acetic acid]",63%,120 °C (dec.),59,,
"COc1ccc(Nc2ncc(C(=O)Nc3c(F)cccc3Cl)c(Nc3ccccc3SC(C)C)n2)cc1 [YL7-045-3, N-(2-chloro-6-fluorophenyl)-4-(2-(isopropylthio)phenylamino)-2-(4-methoxyphenylamino)pyrimidine-5-carboxamide]",−15% and 0%,237 to 240 °C,,,
